The values that follow come from ChEMBL document CHEMBL1201862, “PubChem BioAssay data set” (2004).

A word on the GI50: it is the concentration that inhibits growth by half.

Test systems include DU-145; MCF7; UO-31; OVCAR-8; OVCAR-5; PC-3; K562; SK-OV-3; NCI-H460; HCC 2998; SN12C; T47D; MDA-MB-231; Hs-578T; U-251; MOLT-4; SR; HL-60; HCT-116.
What all share (experiment): DTP human tumour cell line panel, 48 h

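Test compounds were applied to cells in 96-well plates for 48 hours at 5 doses. Abbreviation: GI50, concentration required for 50% inhibition of growth.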 Active and inactive are the calls of the source. Rule as the data show it: active = GI50 up to about 1.1 µM and inactive = higher.

Turning to `CC(NC(=O)C(CC(=O)OCc1ccccc1)NC(=O)OCc1ccccc1)c1ccccc1` (stereo not drawn), the GI50 was > 100 µM (inactive) with DU-145; > 100 µM (inactive) with MCF7; > 100 µM (inactive) in the experiment with UO-31; > 100 µM (inactive) in the experiment on OVCAR-8; > 100 µM (inactive) in the experiment with OVCAR-5; 35.3 µM (inactive) in the experiment on PC-3. Besides, the GI50 in the experiment with K562 is > 100 µM (inactive); with SK-OV-3, 83.2 µM (inactive); in the experiment on NCI-H460, > 100 µM (inactive); in the experiment with HCC 2998, > 100 µM (inactive); with SN12C it was > 100 µM (inactive); with T47D it was > 100 µM (inactive). Also, the GI50 was 79.3 µM (inactive) in the experiment with MDA-MB-231; > 100 µM (inactive) in the experiment with Hs-578T; > 100 µM (inactive) in the experiment with U-251; > 100 µM (inactive) in the experiment with MOLT-4; > 100 µM (inactive) in the experiment with SR.

For `N#CC(C#N)=C1c2ccccc2C(=NN)c2ccccc21`, the GI50 in the experiment on DU-145 was 5.25 µM (inactive); with MCF7, > 100 µM (inactive); in the experiment on UO-31, > 100 µM (inactive); in the experiment on OVCAR-8, > 100 µM (inactive); in the experiment with OVCAR-5, > 100 µM (inactive); in the experiment on PC-3 it was > 100 µM (inactive). The GI50 was > 100 µM (inactive) in the experiment on K562; > 100 µM (inactive) with SK-OV-3; > 100 µM (inactive) with HCC 2998; > 100 µM (inactive) with SN12C; 0.508 µM (active) with T47D; > 79.8 µM (inactive) with MDA-MB-231. In addition, the GI50 with Hs-578T was 9.57 µM (inactive); in the experiment on U-251, 37.3 µM (inactive); in the experiment with MOLT-4, > 100 µM (inactive); with SR it was > 100 µM (inactive).

Take `CN(C)/C=N/CCN1CCOCC1`: the GI50 with DU-145, in the experiment on MCF7, in the experiment with UO-31, in the experiment on OVCAR-8, in the experiment with OVCAR-5 and in the experiment with PC-3 was > 100 µM (inactive) throughout. The GI50 in the experiment on K562, in the experiment on SK-OV-3, in the experiment on HL-60, with SN12C, in the experiment with T47D and in the experiment with MDA-MB-231 was > 100 µM (inactive) each time. The GI50 in the experiment with Hs-578T, with U-251, with MOLT-4, in the experiment on SR and with HCT-116 was > 100 µM (inactive) each time.

`C[C@H](NC(=O)c1ccc(CNC(=O)/C=C/c2cccc(Oc3ccccc3)c2)cc1)c1ccccc1`: the GI50 in the experiment with DU-145 was > 100 µM (inactive); with MCF7, > 100 µM (inactive); in the experiment with UO-31 it was 46.1 µM (inactive); in the experiment with OVCAR-8 it was > 100 µM (inactive); with OVCAR-5, > 100 µM (inactive); with PC-3 it was > 100 µM (inactive). Moreover, the GI50 was > 100 µM (inactive) with K562; > 100 µM (inactive) with SK-OV-3; > 100 µM (inactive) in the experiment with NCI-H460; > 100 µM (inactive) in the experiment with HCC 2998; > 100 µM (inactive) with SN12C; 98.2 µM (inactive) with T47D. Further, the GI50 in the experiment with MDA-MB-231 is > 100 µM (inactive); in the experiment on Hs-578T, 49.9 µM (inactive); in the experiment with U-251, 49.2 µM (inactive); with MOLT-4, 93.3 µM (inactive); with SR it was 26.8 µM (inactive); in the experiment on HCT-116, > 100 µM (inactive).
